The NIST ThermoML archive (doi:10.1021/je900042q)
± gives the expanded uncertainty stated by the source.

Key:
[1] = Liquid; for mass density: 298.15 K, 101.33 kPa; for vapor or sublimation pressure: Ebulliometric method (Recirculating still)
[2] = refractive index (Na D-line) (dimensionless); details: 298.15 K; 101.33 kPa; Liquid; Standard Abbe refractometry

Row | mass density [1] | vapor or sublimation pressure ([1]; 355.35 K) | refractive index [2] | vapor or sublimation pressure ([1]; 418.69 K) | vapor or sublimation pressure ([1]; 341.49 K) | SMILES
1 | 782.69 ± 0.24 kg/m3 | 101.3 ± 0.2 kPa | 1.3754 ± 0.0005 | – | – | CC(C)O [propan-2-ol]
2 | 870.88 ± 0.65 kg/m3 | – | 1.3992 ± 0.0005 | 101.3 ± 0.3 kPa | – | CCCCOC(=O)CC [butyl propanoate]
3 | 718.32 ± 0.96 kg/m3 | – | 1.3652 ± 0.0005 | – | 101.3 ± 0.3 kPa | CC(C)OC(C)C [diisopropyl ether]
